Experiments:
[1] = Enzymatic activity of mammalian ASTs transiently expressed in 293 EBNA cells; assay type: biochemical
Protocol: A forward primer and a reverse primer were prepared on gene sequences encoding the N-terminal and C-terminal of each mammalian AST, and a cDNA encoding the full-length AST was prepared by a PCR amplification using the forward primer, the reverse primer, Pyrobest DNA polymerase (produced by Takara Shuzo Co.), and an airway cDNA as a template. On the other hand, a product obtained by cleaving pcDNA3 (produced by Invitrogen Corp.) with restriction enzymes NruI and KpnI, and the promoter domain of Elongation Factor-1a (EF-1 a) from human genome were amplified by a PCR using a forward primer: […] and a reverse primer: […]. […]
Human fetal kidney-originated 293 EBNA cells (Invitrogen Corp.) were cultured in a 10 cm schale, and the about 5.8×10^6 cells were transfected with 28 μg of each expression plasmid prepared in (1) in 56 μL of LipofectAMINE 2000 (produced by GibcoBRL Corp.) according to an appended manual. […] 40 μL of the above-described assay sample was mixed with 20 μL of a synthetic substrate solution (a solution obtained by diluting a 10 mM Boc-Phe-Ser-Arg-MCA DMSO (dimethyl sulfoxide) solution with the buffer solution for the AST activity assay 50 times), and the increase of the fluorescence intensity per minute was assayed (fluorescence wavelength: 460 nm, excitation wavelength: 380 nm) to determine the enzymatic activity.

[2] = test system: IL-8 promoter; experiment: IL-8 promoter luciferase reporter assay in BEAS-2B; assay type: cell-based, human; conditions: HAST 300 mU/mL, 3 hours
Protocol: About 1.5 Kb and 162 bp of the promoter domains (Mukaida N. et al., J. Immunol., 143: 1366-1371, 1989) of IL-8 were cloned with LA-PCR (produced by Takara Shuzo Co.) using human genome DNA as a template, a forward primer: IL8-1481; […], a forward primer: IL8-162; […], a reverse primer: IL8LUC-R; […]. The PCR was carried out at 98° C. for 20 sec, at 58° C. for one minute and at 68° C. for 5 minutes in 25 cycles. The obtained DNA fragments of the promoter domains of about 1.5 Kb and about 0.25 Kb were named IL8-1481 and IL8-162, respectively.
A DNA fragment containing from ATG (translation-starting codon) to NarI site in the luciferase gene of pGL3-Basic (produced by Promega Corp.) was amplified by a PCR method using a forward primer: IL8LUC-F; […] and a reverse primer: LUC2087R; […]. This luciferase gene N-terminal DNA fragment was ligated to the IL8-1481 and the IL8-162 by a PCR method to obtain the PCR fragments IL8-1481-Luc (about 2 Kb) and IL8-162-Luc (about 800 bp). […]
The luciferase activity was assayed with Pica Gene Dual•Renilla reniformis (produced by Toyo Ink Co.,). […] First, 100 μL of Pica Gene luminescent reagent II was added, and the luminescence due to the firefly luciferase was assayed with a luminometer (LUMINOUS CT-9000D (produced by DIA-IATRON Corp.)). […]

production of the IL-8 at a transcription level (reporter activity) [2]: promoted
Substance: HAST: human airway-specific trypsin-like enzyme; propeptide moiety bound to trypsin-like protein moiety via a disulfide bond
Cell lysate Fluorescence intensity ratio (Human:100) ([1]; 293 EBNA cell lysate, three days after transfection): 100
Sup Fluorescence intensity ratio (Human:100) ([1]; 293 EBNA, Sup): 100
